Assay results from US20260200885A1, “BENZOPYRONE COMPOUNDS AS WELL AS PREPARATION METHOD THEREFOR AND USE THEREOF” (CHENGDU DI’AO JIUHONG PHARMACEUTICAL FACTORY, priority 2022, published 2026).
Like-named read-outs stand apart in the source and are kept apart here.

Experiments:
A2780 cells = test: Determination of cell activity (CellTiter-Glo Luminescent Cell Viability Assay); type: cell-based; settings: Homo sapiens
Description: To examine the effect of compounds on cell viability, ATP was directly quantified using the CellTiter-Glo Luminescent Cell Viability Assay (Promega) to determine the number of viable cells.
Cell density was selected based on optimal signal intensity and growth curve for the inoculation of A2780 cells. The cells were incubated at 37° C. and 5% C02 overnight. Cells were treated with blank group, DMSO group and compound group, respectively, at 37° C. and 5% C02 for 7 days. The prepared solutions were added to cell wells according to the instructions of CellTiter-Glo (Promega), and shaken at a speed of 400 g for 2 min. Then, the solutions were centrifuged at 1000 g for 2 min and incubated at rest for 30 min to ensure a complete reaction. […] readings were taken using a multi-label microplate reader (Perkin Elmer) to calculate IC50 values.

[1] = Pharmacokinetic assay in CD1 mice; type: in vivo; settings: for half-life: intragastric administration 5 mg/kg, Table I-3, read-out: T1/2 (h) for oral administration (converted)
Description: pharmacokinetic assay of compounds was carried out in CD1 mice aged 6-8 weeks with IMT1B as a positive control. The compounds and the positive control were dissolved in 30% aqueous hydroxypropyl-β-cyclodextrin solution containing 25% PEG400 and administered via intravenous injection (1 mg/kg) or intragastric administration (5 mg/kg). Blood samples were collected at 0.033, 0.083, 0.25, 0.5, 1, 2, 4, 8, 24 h and 0.083, 0.25, 0.5, 1, 2, 4, 8, 24 h respectively after administration.
The concentration of the compounds in plasma samples was analyzed using the LC-MS/MS method. Pharmacokinetic calculations were performed using WinNonlin (Phoenix™, version 8.3) or other similar software. The following pharmacokinetic parameters were calculated from the plasma concentration vs. time data: for intravenous administration: T1/2, C0, AUClast, AUCinf, MRTinf, Cl, Vss, regression coefficient, etc.; for oral administration: T1/2, Cmax, Tmax, AUClast, AUCinf, bioavailability, etc. The above parameter data were statistically calculated and described using descriptive statistics such as mean value and standard deviation.

[2] = 168 h, A2780 cells, 7 days treatment, CellTiter-Glo, read-out: IC50
[3] = mouse, plasma, po, 5 mg/kg, main pharmacokinetic parameters, Table I-4

C[C@@H](Oc1ccc2c(-c3ccc(F)cc3Cl)cc(=O)oc2c1)C(=O)c1ccccc1C(=O)O [Compound A1-1-1]
IC50 (A2780 cells; [2]): 100 to 1000 nM

C[C@@H](Oc1ccc2c(-c3ccc(F)cc3Cl)cc(=O)oc2c1)C(=O)c1ccc(C(=O)O)cc1 [Compound A1-1-9]
half-life ([1]; mouse, plasma, po): 3.89 h

C[C@@H](Oc1ccc2c(-c3ccc(F)cc3Cl)cc(=O)oc2c1)C(=O)c1ccnc(C(=O)O)c1 [Compound A1-4-5]
half-life ([1]; mouse, plasma, po): 9.73 h

C[C@H](Oc1ccc2c(-c3ccc(F)cc3Cl)cc(=O)oc2c1)C(=O)c1ccccc1C(=O)O [Compound A2-1-1]
IC50 (A2780 cells; [2]): 100 to 1000 nM
half-life ([1]; mouse, plasma, po): 3.54 h

C[C@H](Oc1ccc2c(-c3ccc(F)cc3Cl)cc(=O)oc2c1)C(=O)c1cccc(C(=O)O)c1 [Compound A2-1-5]
IC50 (A2780 cells; [2]): 20 to 100 nM
F ([1]; bioavailability, Table I-4): 137.555%
maximum plasma concentration Cmax compared with IMT1B ([1]; comparison in words): significantly superior to IMT1B
plasma exposure AUC compared with IMT1B ([1]; comparison in words): significantly superior to IMT1B
T1/2 ([1]; main pharmacokinetic parameters, Table I-4): 3.985 h
AUC(0-inf) [1, 3]: 9870 ng·h/mL
AUC(0-t) [1, 3]: 9740 ng·h/mL
Cmax ([1]; mouse, plasma, po, 5 mg/kg, main pharmacokinetic parameters, Table I-4, read-out: Cmax): 1060 ng/mL
half-life ([1]; mouse, plasma, po): 3.98 h

CC(Oc1ccc2c(-c3ccccc3F)cc(=O)oc2c1)C(=O)c1cccc(C(=O)O)c1 (stereo not shown) [Compound A-1-2-1-1]
IC50 (A2780 cells; [2]): 100 to 1000 nM

CC(Oc1ccc2c(-c3ccccc3Cl)cc(=O)oc2c1)C(=O)c1cccc(C(=O)O)c1 (stereo not shown) [Compound A-1-2-1-2]
IC50 (A2780 cells; [2]): 20 to 100 nM

CC(Oc1ccc2c(-c3ccccc3Br)cc(=O)oc2c1)C(=O)c1cccc(C(=O)O)c1 (stereo not shown) [Compound A-1-2-1-3]
IC50 (A2780 cells; [2]): 20 to 100 nM

COc1ccccc1-c1cc(=O)oc2cc(OC(C)C(=O)c3cccc(C(=O)O)c3)ccc12 (stereo not shown) [Compound A-1-2-1-8]
IC50 (A2780 cells; [2]): 100 to 1000 nM

CNC(=O)c1cccc(C(=O)C(C)Oc2ccc3c(-c4ccc(F)cc4Cl)cc(=O)oc3c2)c1 (stereo not shown) [Compound A-1-2-1-35]
IC50 (A2780 cells; [2]): 20 to 100 nM

CC(Oc1ccc2c(-c3ccc(F)cc3Cl)cc(=O)oc2c1)C(=O)c1cccc(C(N)=O)c1 (stereo not shown) [Compound A-1-2-1-36]
IC50 (A2780 cells; [2]): 20 to 100 nM

CC(Oc1ccc2c(-c3ccc(F)cc3Cl)cc(=O)oc2c1)C(=O)c1cccc(S(N)(=O)=O)c1 (stereo not shown) [Compound A-1-2-1-40]
IC50 (A2780 cells; [2]): 20 to 100 nM
half-life ([1]; mouse, plasma, po): 3.57 h

CC(Oc1ccc2c(-c3ccc(F)cc3Cl)cc(=O)oc2c1)C(=O)c1ccccc1 (stereo not shown) [Compound A-1-2-1-70]
IC50 (A2780 cells; [2]): 20 to 100 nM

CC(Oc1ccc2c(-c3ccc(F)cc3Cl)cc(=O)oc2c1)C(=O)c1cccc(F)c1 (stereo not shown) [Compound A-1-2-1-71]
IC50 (A2780 cells; [2]): 20 to 100 nM

CC(Oc1ccc2c(-c3ccc(F)cc3Cl)cc(=O)oc2c1)C(=O)c1cccc(Cl)c1 (stereo not shown) [Compound A-1-2-1-72]
IC50 (A2780 cells; [2]): 100 to 1000 nM

CC(Oc1ccc2c(-c3ccc(F)cc3Cl)cc(=O)oc2c1)C(=O)c1cccc(Br)c1 (stereo not shown) [Compound A-1-2-1-73]
IC50 (A2780 cells; [2]): 100 to 1000 nM

Cc1cccc(C(=O)C(C)Oc2ccc3c(-c4ccc(F)cc4Cl)cc(=O)oc3c2)c1 (stereo not shown) [Compound A-1-2-1-75]
IC50 (A2780 cells; [2]): 20 to 100 nM

COc1cccc(C(=O)C(C)Oc2ccc3c(-c4ccc(F)cc4Cl)cc(=O)oc3c2)c1 (stereo not shown) [Compound A-1-2-1-76]
IC50 (A2780 cells; [2]): 100 to 1000 nM

CC(Oc1ccc2c(-c3ccc(F)cc3Cl)cc(=O)oc2c1)C(=O)c1ccc(N)cc1 (stereo not shown) [Compound A-1-2-1-78]
IC50 (A2780 cells; [2]): < 20 nM

CNc1ccc(C(=O)C(C)Oc2ccc3c(-c4ccc(F)cc4Cl)cc(=O)oc3c2)cc1 (stereo not shown) [Compound A-1-2-1-79]
IC50 (A2780 cells; [2]): 20 to 100 nM

CC(Oc1ccc2c(-c3ccc(F)cc3Cl)cc(=O)oc2c1)C(=O)c1ccc(N(C)C)cc1 (stereo not shown) [Compound A-1-2-1-80]
IC50 (A2780 cells; [2]): 20 to 100 nM

CC(Oc1ccc2c(-c3ccc(F)cc3Cl)cc(=O)oc2c1)C(=O)c1ccc(O)cc1 (stereo not shown) [Compound A-1-2-1-82]
IC50 (A2780 cells; [2]): < 20 nM

CC(=O)Oc1ccc(C(=O)C(C)Oc2ccc3c(-c4ccc(F)cc4Cl)cc(=O)oc3c2)cc1 (stereo not shown) [Compound A-1-2-1-83]
IC50 (A2780 cells; [2]): < 20 nM

CC(=O)Nc1ccc(C(=O)C(C)Oc2ccc3c(-c4ccc(F)cc4Cl)cc(=O)oc3c2)cc1 (stereo not shown) [Compound A-1-2-1-84]
IC50 (A2780 cells; [2]): < 20 nM

CC(Oc1ccc2c(-c3ccc(F)cc3Cl)cc(=O)oc2c1)C(=O)c1cccc([N+](=O)[O-])c1 (stereo not shown) [Compound A-1-2-1-89]
IC50 (A2780 cells; [2]): 100 to 1000 nM

CC(Oc1ccc2c(-c3ccc(F)cc3Cl)cc(=O)oc2c1)C(=O)c1cccc(C#N)c1 (stereo not shown) [Compound A-1-2-1-90]
IC50 (A2780 cells; [2]): 20 to 100 nM

Cc1ccccc1-c1cc(=O)oc2cc(OC(C)C(=O)c3cccc(C(=O)O)c3)ccc12 (stereo not shown) [Compound A-1-2-1-98]
IC50 (A2780 cells; [2]): < 20 nM

CC(Oc1ccc2c(-c3ccccc3)cc(=O)oc2c1)C(=O)c1cccc(C(=O)O)c1 (stereo not shown) [Compound A-1-2-1-99]
IC50 (A2780 cells; [2]): 100 to 1000 nM

Cc1cccc(-c2cc(=O)oc3cc(OC(C)C(=O)c4cccc(C(=O)O)c4)ccc23)c1 (stereo not shown) [Compound A-1-2-1-100]
IC50 (A2780 cells; [2]): 100 to 1000 nM

CCc1ccccc1-c1cc(=O)oc2cc(OC(C)C(=O)c3cccc(C(=O)O)c3)ccc12 (stereo not shown) [Compound A-1-2-1-101]
IC50 (A2780 cells; [2]): 100 to 1000 nM

C=Cc1ccccc1-c1cc(=O)oc2cc(OC(C)C(=O)c3cccc(C(=O)O)c3)ccc12 (stereo not shown) [Compound A-1-2-1-103]
IC50 (A2780 cells; [2]): 100 to 1000 nM

CC(=O)NCCc1ccc(C(=O)C(C)Oc2ccc3c(-c4ccc(F)cc4Cl)cc(=O)oc3c2)cc1 (stereo not shown) [Compound A-1-2-1-104]
IC50 (A2780 cells; [2]): < 20 nM

CC(Oc1ccc2cc(-c3ccccc3)c(=O)oc2c1)C(=O)N1CCCC(C#N)C1 (stereo not shown) [Compound A-1-2-2-2]
IC50 (A2780 cells; [2]): > 1000 nM

CC(Oc1ccc2c(C3CCCCC3)cc(=O)oc2c1)C(=O)c1cccc(C(=O)O)c1 (stereo not shown) [Compound A-1-2-6-2]
IC50 (A2780 cells; [2]): 100 to 1000 nM

CC(Oc1ccc2c(-c3cccnc3)cc(=O)oc2c1)C(=O)N1CCCC(C#N)C1 (stereo not shown) [Compound A-1-2-6-23]
IC50 (A2780 cells; [2]): > 1000 nM

CC(Oc1ccc2c(-c3ccncc3)cc(=O)oc2c1)C(=O)N1CCCC(C#N)C1 (stereo not shown) [Compound A-1-2-6-24]
IC50 (A2780 cells; [2]): > 1000 nM

CC(Oc1ccc2c(-c3ccc(F)cc3Cl)cc(=O)oc2c1)C(=O)C1CCN(C)CC1 (stereo not shown) [Compound A-1-7-1-1]
IC50 (A2780 cells; [2]): 100 to 1000 nM

CC(Oc1ccc2c(-c3ccc(F)cc3Cl)cc(=O)oc2c1)C(=O)C1CCN(C(=O)C(Cl)Cl)CC1 (stereo not shown) [Compound A-1-7-1-3]
IC50 (A2780 cells; [2]): 20 to 100 nM

CC(Oc1ccc2c(-c3ccc(F)cc3Cl)cc(=O)oc2c1)C(=O)C1CCN(CCO)CC1 (stereo not shown) [Compound A-1-7-1-4]
IC50 (A2780 cells; [2]): 100 to 1000 nM

CC(Oc1ccc2c(-c3ccc(F)cc3Cl)cc(=O)oc2c1)C(=O)[C@H]1CCCNC1 (stereo partly shown) [Compound A-1-8-1-1]
IC50 (A2780 cells; [2]): 100 to 1000 nM

CC(Oc1ccc2c(-c3ccc(F)cc3Cl)cc(=O)oc2c1)C(=O)[C@@H]1CCCNC1 (stereo partly shown) [Compound A-1-8-1-2]
IC50 (A2780 cells; [2]): 100 to 1000 nM

CC(Oc1ccc2c(-c3ccc(F)cc3Cl)cc(=O)oc2c1)C(=O)c1cc[nH]c1 (stereo not shown) [Compound A-1-10-1-5]
IC50 (A2780 cells; [2]): < 20 nM

CC(Oc1ccc2c(-c3ccc(F)cc3Cl)cc(=O)oc2c1)C(=O)c1ccoc1 (stereo not shown) [Compound A-1-10-1-6]
IC50 (A2780 cells; [2]): 20 to 100 nM

CC(Oc1ccc2c(-c3ccc(F)cc3Cl)cc(=O)oc2c1)C(=O)c1ccsc1 (stereo not shown) [Compound A-1-10-1-7]
IC50 (A2780 cells; [2]): 20 to 100 nM

CC(Oc1ccc2c(-c3ccc(F)cc3Cl)cc(=O)oc2c1)C(=O)C1CCNC1 (stereo not shown) [Compound A-1-10-1-35]
IC50 (A2780 cells; [2]): 100 to 1000 nM

CC(Oc1ccc2c(-c3ccc(F)cc3Cl)cc(=O)oc2c1)C(=O)C1CCOCC1 (stereo not shown) [Compound A-1-10-1-39]
IC50 (A2780 cells; [2]): < 20 nM

CC(Oc1ccc2c(-c3ccc(F)cc3Cl)cc(=O)oc2c1)C(=O)c1ccc2[nH]ccc2c1 (stereo not shown) [Compound A-1-11-1-1]
IC50 (A2780 cells; [2]): 20 to 100 nM

CC(Oc1ccc2c(-c3ccc(F)cc3Cl)cc(=O)oc2c1)C(=O)c1ccc2c(c1)OCO2 (stereo not shown) [Compound A-1-11-1-10]
IC50 (A2780 cells; [2]): 100 to 1000 nM

CC(Oc1ccc2c(-c3ccc(F)cc3Cl)cc(=O)oc2c1)C(=O)c1ccc2c(c1)OCCO2 (stereo not shown) [Compound A-1-11-1-13]
IC50 (A2780 cells; [2]): 100 to 1000 nM

CC(Oc1ccc2c(-c3ccc(F)cc3Cl)cc(=O)oc2c1)C(=O)C12CC3CC(CC(C3)C1)C2 (stereo not shown) [Compound A-1-12-1-27]
IC50 (A2780 cells; [2]): 100 to 1000 nM

CC(Oc1ccc2c(-c3ccc(F)cc3Cl)cc(=O)oc2c1)C(=O)C1CCN(CC(=O)O)CC1 (stereo not drawn) [α-12]
IC50 (A2780 cells; A2780, 168 h): 100 to 1000 nM
